From article PMC3524419 (ChemMedChem, 2012)

What follows are molecules tested against T1, COX-1 (ovine) (Ovis aries, UniProt P05979) (assay: 12-HHT formation from arachidonic acid, HPLC).
T1 sequence (P05979 25-600): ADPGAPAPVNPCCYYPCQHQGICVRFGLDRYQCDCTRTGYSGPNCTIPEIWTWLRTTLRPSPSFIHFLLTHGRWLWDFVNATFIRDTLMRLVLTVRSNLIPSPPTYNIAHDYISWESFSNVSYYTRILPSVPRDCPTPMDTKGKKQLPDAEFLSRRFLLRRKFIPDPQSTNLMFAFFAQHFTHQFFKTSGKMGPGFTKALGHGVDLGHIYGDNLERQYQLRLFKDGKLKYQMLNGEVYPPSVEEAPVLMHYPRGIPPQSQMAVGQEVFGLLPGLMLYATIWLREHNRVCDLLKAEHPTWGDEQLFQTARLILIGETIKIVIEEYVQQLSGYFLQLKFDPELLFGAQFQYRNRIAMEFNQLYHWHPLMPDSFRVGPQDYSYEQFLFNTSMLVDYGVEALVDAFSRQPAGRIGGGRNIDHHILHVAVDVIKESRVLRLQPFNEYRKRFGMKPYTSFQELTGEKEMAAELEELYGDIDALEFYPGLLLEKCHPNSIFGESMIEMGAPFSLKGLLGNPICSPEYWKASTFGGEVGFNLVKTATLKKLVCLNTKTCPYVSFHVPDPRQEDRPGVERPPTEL
Assay type: biochemical

IC50, > 30 µM:
CCCCCC(=O)Cc1cc(O)cc2c1C(=O)Oc1cc(O)c(C(=O)O)c(CCCCC)c1O2 [compound 2, physodic acid]
CCCCCC(=O)Cc1cc(O)cc(O)c1C(=O)Oc1cc(O)c(C(=O)O)c(CCCCC)c1 [compound 9, olivetoric acid]
CCCCCc1cc(OC(=O)c2c(O)cc(OC)cc2CCCCC)cc(O)c1C(=O)O [compound 8, perlatolic acid]
